Patent publication US20240173329A1, “BELVARAFENIB FOR USE IN TREATMENT OF BRAIN CANCERS” (Genentech, Inc., priority 2021, published 2024)
Read-outs that look alike come from different tables or passages of the source.

How the values were obtained:
[1] = molecular target: colony stimulating factor 1 receptor (CSF1R) (Homo sapiens, UniProt P07333); assay: panel of 189 kinase assays; assay type: biochemical
[2] = molecular target: discoidin domain receptor tyrosine kinase 1 (DDR1) (Homo sapiens, UniProt Q08345); assay: panel of 189 kinase assays; assay type: biochemical
discoidin domain receptor tyrosine kinase 1 (DDR1), sequence (Q08345 19-913, species assumed): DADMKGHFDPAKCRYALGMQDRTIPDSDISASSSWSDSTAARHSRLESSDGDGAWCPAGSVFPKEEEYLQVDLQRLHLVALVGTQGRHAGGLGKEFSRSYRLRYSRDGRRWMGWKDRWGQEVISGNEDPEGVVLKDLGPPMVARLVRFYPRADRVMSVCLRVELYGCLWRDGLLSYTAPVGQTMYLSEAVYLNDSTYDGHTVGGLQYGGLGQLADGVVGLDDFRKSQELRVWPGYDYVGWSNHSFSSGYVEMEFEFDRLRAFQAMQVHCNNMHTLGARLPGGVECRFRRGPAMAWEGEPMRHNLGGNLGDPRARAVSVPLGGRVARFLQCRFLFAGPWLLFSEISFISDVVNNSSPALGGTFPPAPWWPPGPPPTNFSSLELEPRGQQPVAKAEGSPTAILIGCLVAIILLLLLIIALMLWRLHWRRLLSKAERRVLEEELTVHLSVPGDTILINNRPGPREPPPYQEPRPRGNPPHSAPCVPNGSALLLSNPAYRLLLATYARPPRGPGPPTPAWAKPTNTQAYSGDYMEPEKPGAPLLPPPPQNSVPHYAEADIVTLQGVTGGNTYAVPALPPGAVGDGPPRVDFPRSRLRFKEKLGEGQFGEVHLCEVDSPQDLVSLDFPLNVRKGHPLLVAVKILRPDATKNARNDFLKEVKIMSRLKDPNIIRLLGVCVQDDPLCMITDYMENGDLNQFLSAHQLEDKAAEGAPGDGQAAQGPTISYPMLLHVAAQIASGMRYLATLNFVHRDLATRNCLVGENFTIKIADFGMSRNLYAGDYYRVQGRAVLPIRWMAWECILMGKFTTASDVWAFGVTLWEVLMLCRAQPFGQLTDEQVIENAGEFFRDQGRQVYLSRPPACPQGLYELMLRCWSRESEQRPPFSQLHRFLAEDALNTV

EPHA8 = molecular target: T1, EPHA8 (Homo sapiens, UniProt P29322); assay: panel of 189 kinase assays; assay type: biochemical
T1 sequence (P29322 28-1005): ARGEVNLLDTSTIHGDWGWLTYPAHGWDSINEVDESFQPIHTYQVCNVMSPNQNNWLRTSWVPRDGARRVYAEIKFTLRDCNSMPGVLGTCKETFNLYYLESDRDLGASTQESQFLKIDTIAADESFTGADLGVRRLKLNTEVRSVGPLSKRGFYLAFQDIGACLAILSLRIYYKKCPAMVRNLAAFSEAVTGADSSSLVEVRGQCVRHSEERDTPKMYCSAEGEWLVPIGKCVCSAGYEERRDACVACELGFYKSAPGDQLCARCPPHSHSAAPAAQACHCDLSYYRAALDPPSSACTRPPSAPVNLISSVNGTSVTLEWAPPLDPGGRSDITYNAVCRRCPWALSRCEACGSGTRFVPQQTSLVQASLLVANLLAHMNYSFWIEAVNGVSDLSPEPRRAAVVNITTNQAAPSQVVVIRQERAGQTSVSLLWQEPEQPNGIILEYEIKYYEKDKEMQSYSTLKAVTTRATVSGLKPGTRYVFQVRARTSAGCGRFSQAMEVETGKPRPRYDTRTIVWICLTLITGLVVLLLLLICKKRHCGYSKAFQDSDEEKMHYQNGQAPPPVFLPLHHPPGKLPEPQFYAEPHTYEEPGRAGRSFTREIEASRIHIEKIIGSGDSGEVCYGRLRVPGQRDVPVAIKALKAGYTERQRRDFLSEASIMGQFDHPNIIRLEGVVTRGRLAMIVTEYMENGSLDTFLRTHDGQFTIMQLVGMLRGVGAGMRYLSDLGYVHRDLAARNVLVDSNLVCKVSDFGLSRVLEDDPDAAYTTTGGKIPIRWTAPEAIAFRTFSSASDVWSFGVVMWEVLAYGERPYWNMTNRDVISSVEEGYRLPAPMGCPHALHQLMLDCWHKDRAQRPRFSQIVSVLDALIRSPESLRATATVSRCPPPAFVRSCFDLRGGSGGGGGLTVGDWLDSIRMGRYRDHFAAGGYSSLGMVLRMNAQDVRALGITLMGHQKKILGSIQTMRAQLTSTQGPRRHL

[3] = Pharmacokinetic profile and brain distribution in rats after oral administration; assay type: in vivo, rats (SD); settings: for Kp / Cmax / Tmax / AUC(0-t) / MRT last / half-life / AUC(0-inf): rat
Method: Example 2 evaluated pharmacokinetic profile and brain distribution of belvarafenib in rats after oral administration.
The rat strain was SD supplied by Orient Bio Inc., Korea.
The rats were kept in conventional animal lab cages for 5 days for acclimation before the start of the experiment. The cages were polysulfone 1291H (W425×D266×H185 mm, Techniplast, Italy). Three rats were housed in each cage at a temperature of 22±2° C., a relative humidity of 50±20%, a ventilation frequency of 10-15 times/h, a 12 hour light/dark cycle, a light intensity of 150-300 Lux, at least weekly cage replacement. The mice were fed Picolab Rodent diet (5053, Lab Diet, USA) with abundant tap water.
The rats were dosed with belvarafenib dihydrochloride, 99.6% purity, that was stored at room temperature. Dosing was based on active ingredient free base and was corrected for assay and water content. The dosing vehicle was DMSO (10%), PEG 400 (50%), and deionized water (40%). Belvarafenib for dosing (169.51 mg) was dissolved in 86.93 mL of the vehicle for a final concentration of 1.950 mg/mL.
In a single one day dosing regimen, rats were fasted overnight. The body weight of the rats was measured on the day of treatment, from which dosing volumes were set. […] The rats were fed 4 hours post-dose.
Blood (0.3 mL) was collected from the abdominal artery at 0.5, 1, 2, 4, 7, 24, 48, and 72 hours after belvarafenib administration. Plasma was obtained by centrifugation at 12,000 rpm for 2 minutes (Eppendorf) and then harvested and stored at −20° C. (Panasonic, MDF-U334-PK) until analysis.
After bloodletting of rats at each time point, the brain was collected immediately without perfusion. Brain tissue was washed one to two times with saline to remove surface blood. The brains were then trimmed. The collected brain tissue was accurately weighed and mixed with 4-fold saline based on brain weight (a final dilution factor of 5-fold). Each brain sample was then homogenized and placed in a 1.5 mL tube and stored at −20° C. (Panasonic, MDF-U334-PK) until analysis.
Plasma and brain of untreated animals were similarly obtained for use as a blank matrix.
Plasma and brain concentrations of belvarafenib determined by analysis using LC-MS/MS (Waters UPLC H-Class/Xevo TQ (Waters USA)).
Pharmacokinetic parameters of belvarafenib were calculated from plasma and brain concentration-time data by a non-compartmental method using Phoenix™ WinNonlin 8.1 (Certara, USA). The peak plasma and brain concentration (Cmax) and the corresponding time (Tmax) were directly obtained from the raw data. The area under the plasma curve (AUClast) was obtained by linear-log trapezoidal summation. Other PK parameters such as AUC from dosing time extrapolated to infinity (AUCinf), half-life (t1/2) and mean residence time (MTRlast) were calculated using WinNonlin. The plasma and brain concentrations of belvarafenib were presented as MEAN±S.D. The brain to plasma (B/P) ratio of Belvarafenib was calculated by dividing AUClast in the brain by AUClast in the plasma.

[4] = SD (Sprague-Dawley), oral 30 mg/kg, brain
[5] = SD (Sprague-Dawley), oral 30 mg/kg, plasma
[6] = male, SD, oral 15 mg/kg, plasma

colony stimulating factor 1 receptor (CSF1R), sequence (P07333 20-972, species assumed): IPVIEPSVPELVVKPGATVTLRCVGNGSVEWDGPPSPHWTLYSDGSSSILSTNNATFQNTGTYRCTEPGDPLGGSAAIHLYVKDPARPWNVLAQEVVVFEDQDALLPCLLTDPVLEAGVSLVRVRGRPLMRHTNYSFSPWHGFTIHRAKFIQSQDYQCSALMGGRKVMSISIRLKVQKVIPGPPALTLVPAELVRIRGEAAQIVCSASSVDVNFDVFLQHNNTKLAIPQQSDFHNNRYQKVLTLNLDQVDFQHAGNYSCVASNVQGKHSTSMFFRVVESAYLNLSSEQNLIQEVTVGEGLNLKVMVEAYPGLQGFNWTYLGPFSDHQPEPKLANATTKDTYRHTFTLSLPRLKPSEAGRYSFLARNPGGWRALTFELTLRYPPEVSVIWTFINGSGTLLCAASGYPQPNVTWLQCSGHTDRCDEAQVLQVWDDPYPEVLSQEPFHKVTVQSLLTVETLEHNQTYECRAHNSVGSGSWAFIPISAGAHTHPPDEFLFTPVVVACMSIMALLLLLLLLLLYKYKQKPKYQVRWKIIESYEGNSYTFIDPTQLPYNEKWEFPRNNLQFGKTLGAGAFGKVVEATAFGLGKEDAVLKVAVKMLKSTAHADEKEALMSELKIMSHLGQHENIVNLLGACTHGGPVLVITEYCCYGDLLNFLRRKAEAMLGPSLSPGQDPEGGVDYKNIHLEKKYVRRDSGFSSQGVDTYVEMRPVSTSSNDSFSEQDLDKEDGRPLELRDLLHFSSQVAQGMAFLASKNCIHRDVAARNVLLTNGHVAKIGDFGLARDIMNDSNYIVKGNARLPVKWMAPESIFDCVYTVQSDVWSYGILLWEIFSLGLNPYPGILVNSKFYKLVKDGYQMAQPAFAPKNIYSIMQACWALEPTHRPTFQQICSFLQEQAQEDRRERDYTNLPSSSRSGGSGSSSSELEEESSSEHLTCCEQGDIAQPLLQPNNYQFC

## Cc1ccc2c(Nc3cccc(Cl)c3F)nccc2c1NC(=O)c1csc2c(N)ncnc12 [Belvarafenib, 4-amino-N-(1-((3-chloro-2-fluorophenyl)amino)-6-methylisoquinolin-5-yl)thieno[3,2-d]pyrimidine-7-carboxamide]
[1]
  inhibition at 1 µM: > 90%
[2]
  inhibition at 1 µM: > 90%
EPHA8
  inhibition at 1 µM: > 90%
[3]; SD (Sprague-Dawley), oral 30 mg/kg, AUClast brain / AUClast plasma, read-out: B/P ratio
  Kp: 1.2
[3]; [4]
  Cmax: 4880 ng/g
  Tmax: 7 h
[3]; [5]
  AUC(0-t): 98000 ng·h/mL
  Cmax: 4150 ng/mL
  Tmax: 7 h
[3]; SD, oral 30 mg/kg, AUClast brain / AUClast plasma, read-out: B/P ratio
  Kp: 1.2
[3]; SD, oral 30 mg/kg, brain
  Tmax: 4 h
[3]; male, SD, brain/plasma, oral, 15 mg/kg, read-out: B/P
  Kp: 1.38
[3]; male, SD, oral 15 mg/kg, AUClast brain / AUClast plasma, read-out: B/P ratio
  Kp: 1.38
[3]; male, SD, oral 15 mg/kg, brain
  Cmax: 3910 ng/g
  MRT last: 15.5 h
  Tmax: 7 h
  half-life: 9 h
[3]; [6]
  AUC(0-inf): 50600 ng·h/mL
  AUC(0-t): 49400 ng·h/mL
  Cmax: 2130 ng/mL
  MRT last: 18 h
  Tmax: 4 h
  half-life: 12.5 h
[3]; male, SD, oral 30 mg/kg, plasma
  AUC(0-inf): 100000 ng·h/mL
[3]; oral 15 mg/kg, brain
  AUCinf: 68350.0 ng·h/g
  AUClast: 67954.7 ng·h/g
[3]; oral 30 mg/kg, brain
  AUCinf: 115222.3 ng·h/g
  AUClast: 113670.1 ng·h/g
[3]; single oral 15 mg/kg, pre- and post-dosing periods
  general clinical signs: No clinical signs were observed
